Key:
[1] = test system: DU145 cell lines; experiment: Cell growth suppressive effect, number of living cells (Premix WST-1), Example 2; type: cell-based; settings: cloperastine 0.1, 1, 10 μM, 24 hours, vs culture without cloperastine
Experimental: (§1) For confirming that the cloperastine species has a cell growth suppressive effect on metastatic CRPC, metastatic CRPC cell lines (DU145 cell lines and PC3 cell lines) were cultured in the presence of the cloperastine species, and the cell growth property was analyzed.
(§2) DU145 cell lines and PC3 cell lines (these cell lines were obtained from ATCC [American Type Culture Collection]) were cultured on a 96-well plate for 24 hours. […] As a control, an experiment was also conducted in which DU145 cell lines and PC3 cell lines were cultured in a culture solution free of a cloperastine hydrochloride.

[2] = test system: PC3 cell lines; experiment: as above; type: cell-based; settings: cloperastine 0.1, 1, 10 μM, 24 hours, vs culture without cloperastine
Experimental: as §1, §2

[3] = test system: DU145 cell lines; experiment: EMT-related gene mRNA expression, quantitative PCR; type: cell-based; settings: 10 μM cloperastine, 24 hours, vs control group
Experimental: (§3) For confirming that the cloperastine species has a suppressive effect on EMT in metastatic CRPC cells, metastatic CRPC cell lines (DU145 cell lines and PC3 cell lines) were cultured in the presence of the cloperastine species, and the gene expression profiles of EMT-related factors were analyzed.
(§4) DU145 cell lines and PC3 cell lines were cultured for 24 hours in the presence of 10 μM cloperastine or without cloperastine (cloperastine treatment group and control group, respectively), and mRNA was then extracted with “RNeasy Mini kit” (manufactured by QIAGEN Company). From the extracted mRNA, cDNA was synthesized with “PrimeScript RT reagent Kit” (manufactured by Takara Bio Inc.). For analyzing the mRNA expression levels of genes encoding six kinds of factors (E-cadherin, vimentin, “Zinc finger protein SNAI1”, “Zinc finger protein SNAI2”, “Zinc finger E-box-binding homeobox 1” and “Zinc finger E-box-binding homeobox 2”) (CDH1 gene, VIM gene, SNAI1 gene, SNAI2 gene, ZEB1 gene and ZEB2 gene, respectively), quantitative PCR analysis was performed with the primer and TaqMan probe sets (TaqMan Gene Expression Assays) (manufactured by Applied Biosystems Company) shown in Table 1 below, and CFX96 Real-Time System (manufactured by Bio-Rad Laboratories, Inc).

[4] = test system: PC3 cell lines; experiment: EMT-related gene mRNA expression, quantitative PCR; type: cell-based; settings: 10 μM cloperastine, 24 hours, vs control group
Experimental: as §3, §4

[5] = test system: DU145 cell lines; experiment: Invasion assay, xCELLigence, Matrigel basement membrane matrix; type: cell-based; settings: 1 μM cloperastine hydrochloride, 0 to 48 hours, vs control group
Experimental: For confirming the anti-prostate cancer effect of the cloperastine species, DU145 cell lines were cultured in the presence of the cloperastine species, and the invasiveness of the cell lines was analyzed (invasion assay).
To a culture solution added to each well of Real-Time Cell Analyzer xCELLigence (manufactured by ACEA Biosciences Inc.), a cloperastine hydrochloride (manufactured by Sigma-Aldrich Co. LLC) was added to 1 μM, and 4.0×10^4 DU145 cell lines were added. The cell lines were then cultured, and the number of cells passing through a Matrigel basement membrane matrix (manufactured by Corning Incorporated) was measured over time (0 to 48 hours) (cloperastine treatment group). As a control for comparison, DU145 cell lines were cultured in a culture solution free of a cloperastine hydrochloride, and the same experiment was conducted (control group).

[6] = test system: normal cells; experiment: Impact on growth of normal cells; type: cell-based; settings: 1 μM
[7] = test system: C4-2AT6 cell lines; experiment: Cell growth suppressive effect on enzalutamide-resistant prostate cancer cell lines (WST-1), Example 7; type: cell-based; settings: cloperastine 0.1, 1, 10 μM, vs culture without cloperastine
Experimental: as §2
(§5) For confirming that the cloperastine species has a cell growth suppressive effect on enzalutamide-resistant prostate cancer and cabazitaxel-resistant prostate cancer, enzalutamide-resistant prostate cancer cell lines (C4-2AT6 cell lines) and cabazitaxel-resistant prostate cancer cell lines (DU145CR cell lines) were used to analyze the cell growth property in the presence of cloperastine species in accordance with the method described in Example 2.

[8] = test system: DU145CR cell lines; experiment: Cell growth suppressive effect on cabazitaxel-resistant prostate cancer cell lines (WST-1), Example 7; type: cell-based; settings: cloperastine 0.1, 1, 10 μM, vs culture without cloperastine
Experimental: as §2, §5

[9] = test system: DU145 cell lines; experiment: Antitumor effect on CRPC model mice, tumor volume; type: in vivo
Source text: 1×10^6 metastatic CRPC cell lines (DU145 cell lines) were subcutaneously inoculated to castrated male nude mice (BALB/C) to prepare subcutaneous tumor model mice. When the tumor size reached about 100 mm^3, the subcutaneous tumor model mice (CRPC model mice) were divided into three groups (control group, cabazitaxel administration group and cloperastine administration group). To the cloperastine administration group (n=5), a cloperastine hydrochloride (manufactured by Sigma-Aldrich Co. LLC) was orally administered daily at a dose of 12.5 mg/kg (body weight) per day in terms of cloperastine (“cloperastine administration group” in FIG. 7A). To the cabazitaxel administration group (n=5), cabazitaxel (manufactured by Carbosynth Limited) was intraperitoneally administered in a single dose of 10 mg/kg (body weight) (“cabazitaxel administration group” in FIG. 7A). On the other hand, any of the cloperastine hydrochloride and cabazitaxel was not administered to the control group (n=5) (control group in FIG. 7A).
The 1×10^6 DU145CR cell lines established in Example 5 were subcutaneously inoculated to castrated male nude mice (BALB/C) to prepare subcutaneous tumor model mice (cabazitaxel-resistant CRPC mice). When the tumor size reached about 100 mm^3, the subcutaneous tumor model mice were divided into three groups (control group, cabazitaxel administration group and cloperastine administration group). To the cloperastine administration group (n=5), a cloperastine hydrochloride (manufactured by Sigma-Aldrich Co. LLC) was orally administered daily at a dose of 12.5 mg/kg (body weight) per day in terms of cloperastine (“cloperastine administration group” in FIG. 7B). […] For the CRPC model mice and the cabazitaxel-resistant CRPC mice, tumor volumes were measured and an average value was calculated immediately after oral administration of the cloperastine hydrochloride (day 0) and 4 days, 8 days, 12 days and 16 days after the oral administration.

[10] = test system: DU145CR cell lines; experiment: Antitumor effect on cabazitaxel-resistant CRPC mice, tumor volume; type: in vivo
Source text: The 1×10^6 DU145CR cell lines established in Example 5 were subcutaneously inoculated to castrated male nude mice (BALB/C) to prepare subcutaneous tumor model mice (cabazitaxel-resistant CRPC mice). When the tumor size reached about 100 mm^3, the subcutaneous tumor model mice were divided into three groups (control group, cabazitaxel administration group and cloperastine administration group). To the cloperastine administration group (n=5), a cloperastine hydrochloride (manufactured by Sigma-Aldrich Co. LLC) was orally administered daily at a dose of 12.5 mg/kg (body weight) per day in terms of cloperastine (“cloperastine administration group” in FIG. 7B). To the cabazitaxel administration group (n=5), cabazitaxel (manufactured by Carbosynth Limited) was intraperitoneally administered in a single dose of 10 mg/kg (body weight) (“cabazitaxel administration group” in FIG. 7B). On the other hand, any of the cloperastine hydrochloride and cabazitaxel was not administered to the control group (n=5) (“control group” in FIG. 7B). For the CRPC model mice and the cabazitaxel-resistant CRPC mice, tumor volumes were measured and an average value was calculated immediately after oral administration of the cloperastine hydrochloride (day 0) and 4 days, 8 days, 12 days and 16 days after the oral administration.

[11] = test system: DU145 cell lines; experiment: Ki67 immunohistological staining; type: cell-based; settings: 10 μM, 24 hours, vs culture without cloperastine
Experimental: (§6) For confirming that the cloperastine species has a cell growth suppressive effect and an apoptosis inducing effect on CRPC and cabazitaxel-resistant CRPC, metastatic CRPC cell lines (DU145 cell lines and PC3 cell lines) were cultured in the presence of the cloperastine species, and analysis was performed by an immunohistological staining method using an antibody to a cell growth marker (Ki67), and a TUNEL (TdT-mediateddUTPnickendlabeling) method.
(§7) DU145 cell lines and DU145CR cell lines were cultured on 96-well plates, respectively, for 24 hours, and to a culture solution, a cloperastine hydrochloride (manufactured by Sigma-Aldrich Co. LLC) was added to 10 μM. The cell lines were further cultured for 24 hours, and the cells were then fixed with 4% paraformaldehyde. The fixed cells were subjected to blocking treatment with a 1% BSA (bovine serum albumin) solution, and primary antibody reaction treatment with a Ki67 antibody (manufactured by Dako Company) was performed overnight at 4° C. […] The immunohistological-stained cell sample was observed under a phase-contrast microscope (see FIG. 8A), and the ratio of Ki67-positive cells was calculated. […] The cell sample stained by the TUNEL method was observed under a phase-contrast microscope (see FIG. 9A), and the ratio of TUNEL-positive cells (cells undergoing apoptosis) was calculated.

[12] = test system: DU145CR cell lines; experiment: Ki67 immunohistological staining; type: cell-based; settings: 10 μM, 24 hours, vs culture without cloperastine
Experimental: as §6, §7

[13] = test system: DU145 cell lines; experiment: TUNEL method (apoptosis); type: cell-based; settings: 10 μM, 24 hours, vs culture without cloperastine
Experimental: as §6, §7

[14] = test system: DU145CR cell lines; experiment: TUNEL method (apoptosis); type: cell-based; settings: 10 μM, 24 hours, vs culture without cloperastine
Experimental: as §6, §7

[15] = test system: DU145CR cell lines; experiment: Antitumor effect by use in combination with cabazitaxel, cabazitaxel-resistant CRPC mice, tumor volume; type: in vivo
Source text: The 5×10^6 DU145CR cell lines established in Example 5 were subcutaneously inoculated to castrated male nude mice (BALB/C) to prepare subcutaneous tumor model mice (cabazitaxel-resistant CRPC mice). When the tumor size reached about 100 mm^3, the subcutaneous tumor model mice were divided into four groups (control group, cabazitaxel administration group, cloperastine administration group and cloperastine+cabazitaxel administration group). To the cabazitaxel administration group (n=5), cabazitaxel (manufactured by Carbosynth Limited) was intraperitoneally administered in a single dose of 10 mg/kg (body weight). To the cloperastine administration group (n=5), a cloperastine hydrochloride (manufactured by Sigma-Aldrich Co. LLC) was orally administered daily at a dose of 12.5 mg/kg (body weight) per day in terms of cloperastine. To the cloperastine+cabazitaxel administration group (n=5), the cloperastine hydrochloride was orally administered daily at a dose of 12.5 mg/kg (body weight) per day in terms of cloperastine, and cabazitaxel (manufactured by Carbosynth Limited) was intraperitoneally administered in a single dose of 10 mg/kg (body weight). […] For the cabazitaxel-resistant CRPC mice, tumor volumes were measured and an average value was calculated immediately after oral administration (day 0) and 4 days, 8 days and 12 days after the oral administration.

[16] = test system: DU145 cell lines; experiment: In vitro analysis of cabazitaxel resistance, number of living cells (WST-1); type: cell-based; settings: Homo sapiens, DU-145, 24 hours
[17] = test system: DU145CR cell lines; experiment: as above; type: cell-based; settings: 24 hours
Experimental: DU145CR cell lines were established by culturing DU145 cell lines in the presence of 0.2 nM cabazitaxel (manufactured by Carbosynth Limited) for about 2 years while gradually increasing the cabazitaxel concentration to 3 nM.

[18] = test system: DU145CR cell lines; experiment: In vivo analysis of cabazitaxel resistance, subcutaneous tumor model mice (DU145CR vs DU145); settings: cabazitaxel 10 mg/kg single intraperitoneal dose; 12 days after administration
Source text: The 1×10^6 established DU145CR cell lines and 1×10^6 DU145 cell lines were subcutaneously inoculated to castrated male nude mice (BALB/C), respectively, to prepare subcutaneous tumor model mice (DU145CR mice and DU145 mice). When the tumor size reached about 200 mm^3, the subcutaneous tumor model mice were divided into four groups (DU145 mouse group, cabazitaxel administration DU145 mouse group, DU145CR mouse group and cabazitaxel administration DU145CR mouse group), and to the cabazitaxel administration DU145 mouse group and the cabazitaxel administration DU145CR mouse group (n=5 for each group), cabazitaxel (manufactured by Carbosynth Limited) was intraperitoneally administered in a single dose of 10 mg/kg (body weight). Cabazitaxel was not administered to the DU145 mouse group and the DU145CR mouse group (n=5 for each group). Immediately after oral administration (day 0) and 4 days, 8 days and 12 days after the oral administration, tumor volumes were measured and an average value was calculated.

With `Clc1ccc([C@H](OCCN2CCCCC2)c2ccccc2)cc1` (racemic) [cloperastine, 1-{2-[(RS)-(4-chlorophenyl) (phenyl)methoxy]ethyl}piperidine] the “number of living cells” value [1] was “significantly smaller number of living cells in a concentration-dependent manner”, the “number of living cells” value [2] was “significantly smaller number of living cells in a concentration-dependent manner” and the “expression levels of mRNA encoding vimentin, SNAI1, SNAI2, ZEB1, ZEB2” value [3] was “all lower”. The “expression level of mRNA encoding E-cadherin” value ([4]; PC3 (FIG. 2B)) was “higher”, the “expression levels of mRNA encoding vimentin, SNAI1, SNAI2, ZEB1, ZEB2” value ([4]; PC3) was “all lower” and the invasion of cells [5] was “significantly suppressed”. The “impact on growth of normal cells” value [6] was “no impact on growth of normal cells”, the “number of living cells” value [7] was “significantly smaller number of living cells in a concentration-dependent manner” and the “number of living cells” value [8] was “significantly smaller number of living cells in a concentration-dependent manner”. For the same molecule, the “tumor volume vs control group” value ([9]; 12.5 mg/kg per day oral, daily) was “smaller than the tumor volume in the control group”, the “tumor volume decrease level vs cabazitaxel administration group” value ([9]; cloperastine 12.5 mg/kg per day oral vs cabazitaxel 10 mg/kg single i.p.) was “higher than the tumor volume decrease level in the cabazitaxel administration group” and the tumor volume ([10]; 12.5 mg/kg per day oral, daily) was “considerably reduced the tumor volume”. The “ratio of Ki67-positive cells” value [11] was “lower ratio of Ki67-positive cells”, the “ratio of Ki67-positive cells” value [12] was “lower ratio of Ki67-positive cells” and the “ratio of TUNEL-positive cells” value [13] was “higher ratio of TUNEL-positive cells”. The “ratio of TUNEL-positive cells” value [14] was “higher ratio of TUNEL-positive cells” and the “tumor volume vs control group” value ([15]; cloperastine 12.5 mg/kg per day oral, day 12, p<0.001) was “statistically significant difference between the cloperastine administration group and the control group”.
`CO[C@H]1C(=O)[C@]2(C)[C@@H](OC)C[C@H]3OC[C@@]3(OC(C)=O)[C@H]2[C@H](OC(=O)c2ccccc2)[C@]2(O)C[C@H](OC(=O)[C@H](O)[C@@H](NC(=O)OC(C)(C)C)c3ccccc3)C(C)=C1C2(C)C` [cabazitaxel] was tested, and the IC50 [16] was 3.8 nM, the IC50 [17] was 11 nM and the “tumor volume, cabazitaxel administration DU145CR mouse group vs cabazitaxel administration DU145 mouse group” value [18] was “about twice”. The “tumor volume vs control group” value ([9]; cabazitaxel 10 mg/kg single intraperitoneal dose, day 16, p<0.01) was “statistically significant difference between the cabazitaxel administration group and the control group”, the tumor volume ([10]; cabazitaxel 10 mg/kg single intraperitoneal dose) was “hardly enabled suppression of an increase in tumor volume” and the “tumor volume vs control group” value ([15]; cabazitaxel 10 mg/kg single i.p., day 12, p>0.05) was “no statistically significant difference”.

Reference: patent US20210283117A1, “PROPHYLACTIC OR THERAPEUTIC AGENT FOR PROSTATE CANCER” (KEIO UNIVERSITY, priority 2018, published 2021)
